Test results from PubChem BioAssay AID1259407 (Chemical Carcinogenesis Research Information System (CCRIS), 2018).
The source made the active and inactive calls. The rule behind the calls is not given here.

System: CCRIS mutagenicity, Ames/micronucleus/aberration tests
Test: CCRIS mutagenicity studies
Details: Test System: AMES SALMONELLA TYPHIMURIUM
[1] = Strain/Indicator: TA98, Metabolic Activation: NONE, Method: STANDARD PLATE
[2] = Strain/Indicator: TA98, Metabolic Activation: RAT, LIVER, S-9, AROCLOR 1254, Method: STANDARD PLATE

SMILES | mutagenic call (Strain/Indicator: TA98, Metabolic Activation: HAMSTER, LIVER, S-9, AROCLOR 1254 (10%), Method: PREINCUBATION) | mutagenic call (Strain/Indicator: TA98, Metabolic Activation: NONE, Method: PREINCUBATION) | mutagenic call (Strain/Indicator: TA98, Metabolic Activation: RAT, LIVER, S-9, AROCLOR 1254 (10%), Method: PREINCUBATION) | mutagenic call (Strain/Indicator: TA100, Metabolic Activation: HAMSTER, LIVER, S-9, AROCLOR 1254 (10%), Method: PREINCUBATION) | mutagenic call (Strain/Indicator: TA100, Metabolic Activation: NONE, Method: PREINCUBATION) | mutagenic call (Strain/Indicator: TA100, Metabolic Activation: RAT, LIVER, S-9, AROCLOR 1254 (10%), Method: PREINCUBATION) | mutagenic call (Strain/Indicator: TA1535, Metabolic Activation: HAMSTER, LIVER, S-9, AROCLOR 1254 (10%), Method: PREINCUBATION) | mutagenic call (Strain/Indicator: TA1535, Metabolic Activation: NONE, Method: PREINCUBATION) | mutagenic call (Strain/Indicator: TA1535, Metabolic Activation: RAT, LIVER, S-9, AROCLOR 1254 (10%), Method: PREINCUBATION) | mutagenic call (Strain/Indicator: TA1537, Metabolic Activation: HAMSTER, LIVER, S-9, AROCLOR 1254 (10%), Method: PREINCUBATION) | mutagenic call (Strain/Indicator: TA1537, Metabolic Activation: NONE, Method: PREINCUBATION) | mutagenic call (Strain/Indicator: TA1537, Metabolic Activation: RAT, LIVER, S-9, AROCLOR 1254 (10%), Method: PREINCUBATION) | mutagenic call [1] | mutagenic call [2] | mutagenic call (Strain/Indicator: TA100, Metabolic Activation: NONE, Method: STANDARD PLATE) | mutagenic call (Strain/Indicator: TA100, Metabolic Activation: RAT, LIVER, S-9, AROCLOR 1254, Method: STANDARD PLATE)
CC(=O)/C=C/c1ccc2c(c1)OCO2 | inactive; negative | inactive; negative | inactive; negative | inactive; negative | inactive; negative | inactive; negative | inactive; negative | inactive; negative | inactive; negative | inactive; negative | inactive; negative | inactive; negative | – | – | – | –
O=C(/C=C/c1ccccc1)c1ccc(-c2ccccc2)cc1 | – | – | – | – | – | – | – | – | – | – | – | – | inactive; negative | inactive; negative | inactive; negative | inactive; negative
O=C1c2ccccc2-c2cc3ccccc3cc21 | – | – | – | – | – | – | – | – | – | – | – | – | active; positive | active; positive | – | –
